Series [1] deals with T1, NO synthase (Rattus norvegicus, UniProt P0DP29+P29476). In words: NO synthase activity, conversion of [3H]arginine to [3H]citrulline, purified enzyme. The following applies: for EC50: read-out: EC50 for enhancement/stimulation of enzyme activity; for IC50: read-out: Calmodulin antagonists, IC50. Format: biochemical.
The target of series [2] is T2, NO synthase activity in crude brain supernatant preparations (Rattus norvegicus, UniProt P29476).
T2 construct: not recombinant
The series can be described thus: NO synthase activity, conversion of [3H]arginine to [3H]citrulline, crude cerebellar/brain supernatant preparations. The class given is biochemical. How it is done: (§1) This example describes the method by which NOS activity was assayed. […] After incubation for 5 min at 22° C., assays were terminated with 2 ml of 20 mM Hepes, pH 5.5/2 mM EDTA, and were applied to 1-ml columns of Dowex A[…]-8 (Na^+ form), which were eluted with 2 ml of water. [^3 H]Citrulline was quantified by liquid scintillation spectroscopy of the 4-ml flow-through.

In series [3] the target is T1, NO synthase. The series can be described thus: Effects of varying calcium, calmodulin and NADPH on NO synthase activity. The class given is biochemical. How it is done:
After incubation for 5 min at 22° C., assays were terminated with 2 ml of 20 mM Hepes, pH 5.5/2 mM EDTA, and were applied to 1-ml columns of Dowex A[…]-8 (Na^+ form), which were eluted with 2 ml of water. [^3 H]Citrulline was quantified by liquid scintillation spectroscopy of the 4-ml flow-through.

Series [4] deals with NO synthase activity in crude brain supernatant preparations (Rattus norvegicus, UniProt P0DP29). In words: NO synthase activity, conversion of [3H]arginine to [3H]citrulline, crude cerebellar/brain supernatant preparations. Format: biochemical. The following applies: crude brain supernatant preparations; read-out: IC50, inhibition of NO synthase activity. How it is done: as §1

Series [5] deals with T3, NO synthase (Rattus norvegicus, UniProt P29476).
T3 construct: Eighteen rat cerebella were homogenized; from tissue; host or cells: rat cerebella (supernatant, DEAE eluate, 2',5'-ADP agarose eluate)
The series can be described thus: Restoration of enzyme activity of DEAE eluate fractions. Format: biochemical. How it is done:
Eighteen rat cerebella were homogenized in 100 ml of ice-cold buffer A [50 mM Tris-HCl, pH 7.4/1 mM EDTA/antipain (10 mg/liter)/leupeptin (10 mg/liter)/soybean trypsin inhibitor (10 mg/liter)/pepstatin (10 mg/liter)/chymostatin (10 mg/liter)/phenylmethylsulfonyl fluoride (100 mg/liter)], and all subsequent procedures were carried out at 4° C. The homogenate was centrifuged at 20,000×g for 15 min, and the supernatant was loaded at 2 ml/min onto a 20-ml column of diethylminoethyl (DEAE) equilibrated with buffer A. The column was washed with 50 ml of buffer A and eluted with a 100-ml linear gradient of 0-400 mM NaCl in buffer A. Fractions (2.5 ml) were assayed for enzyme activity.
In our preliminary efforts to purify NO synthase, we observed that enzymatic activity adheres to a DEAE column and can be eluted by 1M NaCl. […] Since NO formation requires Ca^2+, we speculated that calmodulin might be involved. […] NO synthase activity elutes in one sharp, major peak followed by a smaller peak of activity, which is observed reproducibly in multiple experiments.

Series [6] has as its target T3, NO synthase. The series can be described thus: Storage stability of NO synthase activity. Format: physicochemical. How it is done:
After incubation for 5 min at 22° C., assays were terminated with 2 ml of 20 mM Hepes, pH 5.5/2 mM EDTA, and were applied to 1-ml columns of Dowex AG502X-8 (Na^+ form), which were eluted with 2 ml of water. [^3 H]Citrulline was quantified by liquid scintillation spectroscopy of the 4-ml flow-through.
The purified enzyme is unstable. When stored at 0° C., 50% of the enzyme activity is lost in 2 hr, whereas the crude supernatant preparation loses 50% activity at 0° C. in 2 days. Stability is enhanced by storing the enzyme in bovine serum albumin (1 mg/ml)/20% (vol/vol) glycerol at -70° C. When stored in this way, the enzyme loses<50%activity in 7 days.

The target in series [7] is T3, NO synthase. In words: Specific activity of fractions during purification of NO synthase. Format: biochemical. The following applies: typical purification, repeated five times.
Description: After a 10-min incubation, the suspension was poured into a fritted column, which was washed with 50 ml of buffer B with 0.5M NaCl and then with 20 ml of buffer B alone.
Enzyme was purified and fractions were assayed as described.

T1 sequence (P29476 whole entry, one chain of several): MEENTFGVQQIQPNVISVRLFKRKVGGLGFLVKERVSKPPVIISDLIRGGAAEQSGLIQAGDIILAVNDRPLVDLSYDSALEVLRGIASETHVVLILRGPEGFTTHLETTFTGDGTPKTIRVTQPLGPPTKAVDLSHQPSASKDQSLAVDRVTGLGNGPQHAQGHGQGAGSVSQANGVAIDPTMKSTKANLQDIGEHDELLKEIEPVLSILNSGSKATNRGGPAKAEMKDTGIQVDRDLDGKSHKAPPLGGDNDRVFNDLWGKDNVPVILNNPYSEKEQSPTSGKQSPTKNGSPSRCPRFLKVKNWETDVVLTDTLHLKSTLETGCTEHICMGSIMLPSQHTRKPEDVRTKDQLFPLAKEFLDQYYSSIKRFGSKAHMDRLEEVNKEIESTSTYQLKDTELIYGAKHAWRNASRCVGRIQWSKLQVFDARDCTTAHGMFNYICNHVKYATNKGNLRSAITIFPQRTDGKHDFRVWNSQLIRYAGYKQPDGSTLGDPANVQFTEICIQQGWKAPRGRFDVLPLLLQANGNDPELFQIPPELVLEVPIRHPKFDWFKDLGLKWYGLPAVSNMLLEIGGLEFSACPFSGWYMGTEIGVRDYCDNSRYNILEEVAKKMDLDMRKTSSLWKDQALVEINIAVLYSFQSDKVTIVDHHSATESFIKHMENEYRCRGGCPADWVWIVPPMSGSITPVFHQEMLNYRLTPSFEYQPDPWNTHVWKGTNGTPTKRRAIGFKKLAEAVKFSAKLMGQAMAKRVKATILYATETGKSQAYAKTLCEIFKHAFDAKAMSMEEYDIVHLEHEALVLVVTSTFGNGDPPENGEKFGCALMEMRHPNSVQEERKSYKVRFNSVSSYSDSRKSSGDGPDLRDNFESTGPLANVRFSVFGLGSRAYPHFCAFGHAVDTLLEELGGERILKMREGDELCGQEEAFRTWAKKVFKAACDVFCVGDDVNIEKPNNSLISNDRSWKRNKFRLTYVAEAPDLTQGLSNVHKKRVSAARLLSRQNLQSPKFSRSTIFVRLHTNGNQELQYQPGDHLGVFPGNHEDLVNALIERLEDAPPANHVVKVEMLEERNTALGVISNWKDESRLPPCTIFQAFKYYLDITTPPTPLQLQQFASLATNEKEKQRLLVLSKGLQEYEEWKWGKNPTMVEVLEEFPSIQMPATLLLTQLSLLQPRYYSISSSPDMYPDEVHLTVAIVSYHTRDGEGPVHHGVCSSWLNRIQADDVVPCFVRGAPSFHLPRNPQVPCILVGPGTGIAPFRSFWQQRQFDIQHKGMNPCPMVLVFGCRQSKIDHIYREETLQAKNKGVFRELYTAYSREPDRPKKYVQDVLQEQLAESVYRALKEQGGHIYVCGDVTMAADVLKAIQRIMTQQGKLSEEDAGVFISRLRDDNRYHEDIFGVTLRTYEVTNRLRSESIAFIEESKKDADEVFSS

In the case of `[Ca+2]` [Ca^2+, calcium], in series [1], the EC50 stood at 0.2 µM. The “EC50 compared with crude preparations” value in series [2] (crude preparations) is “the same in the pure and crude preparations”. Further, the “Concentration of maximal enhancement of activity” value in series [3] amounted to 1 µM. The “Stimulation in the absence of NADPH” value in series [3] (absence of NADPH) is listed as “fails to stimulate NO synthase activity”. Further, in series [3] (concentrations exceeding 100 μM Ca2+), the “Activity at high Ca2+” value was “some reduction in activity”.
In the case of `NCCCCCCNS(=O)(=O)c1cccc2ccccc12` [W-5], the IC50 in series [1] came to 25 µM; in series [4], 50 µM.
Taken in the same sequence, the figures for `NCCCCNS(=O)(=O)c1ccc2c(Cl)cccc2c1` [W-13] were 70 µM and 25 µM.
As to Calmodulin, the EC50 in series [1] came to 0.01 µM. Besides, the “Influence of added calmodulin on enzyme activity” value in series [2] (crude cerebellar supernatant preparations, calmodulin 1 μM) was “no influence on enzyme activity”. In series [3] (FIG. 2A), the “Stimulation of NO synthase activity” value is “extremely potent stimulator of NO synthase activity”. Further, the “Effect of addition to DEAE eluate fractions on enzyme activity” value in series [5] is reported as “restores enzyme activity”. The “Effect on stability of the enzyme” value in series [6] (presence of calmodulin) is given as “Stability is also enhanced”.
In the case of “NO synthase: calmodulin-dependent nitric oxide synthase purified to homogeneity from rat cerebella by DEAE and 2',5'-ADP agarose chromatography”, the Vmax in series [1] (Table 2) is reported as 0.96 μmol per min per mg of protein. For the same molecule, in series [7], the Specific activity turned out to be 960 nmol/mg/min. In series [6] (bovine serum albumin (1 mg/ml)/20% (vol/vol) glycerol at -70° C., 7 days), the “Enzyme activity lost on storage” value is less than 50%. The “Time to loss of 50% of the enzyme activity” value in series [6] (stored at 0° C.) turned out to be 2 h.

(Values after US5268465A, “Purification and molecular cloning of nitric oxide synthase” (The Johns Hopkins University, priority 1991, dated 1993).)
